Reference: ChEMBL document CHEMBL4433199, “First-in-class allosteric inhibitors of bacterial IMPDHs” (Eur J Med Chem, 2019)
Active and inactive are the calls of the source. The rule behind the calls is not given here.

What was measured:
[1] = molecular target: T1, Inosine-5'-monophosphate dehydrogenase (Pseudomonas aeruginosa (strain ATCC 15692 / DSM 22644 / CIP 104116 / JCM14847 / LMG 12228 / 1C / PRS 101 / PAO1)) (UniProt Q9HXM5); test: Competitive inhibition of Pseudomonas aeruginosa IMPDH using IMP as substrate and NAD+ in presence of varying ATP incubated for 70 secs
T1 sequence (whole entry): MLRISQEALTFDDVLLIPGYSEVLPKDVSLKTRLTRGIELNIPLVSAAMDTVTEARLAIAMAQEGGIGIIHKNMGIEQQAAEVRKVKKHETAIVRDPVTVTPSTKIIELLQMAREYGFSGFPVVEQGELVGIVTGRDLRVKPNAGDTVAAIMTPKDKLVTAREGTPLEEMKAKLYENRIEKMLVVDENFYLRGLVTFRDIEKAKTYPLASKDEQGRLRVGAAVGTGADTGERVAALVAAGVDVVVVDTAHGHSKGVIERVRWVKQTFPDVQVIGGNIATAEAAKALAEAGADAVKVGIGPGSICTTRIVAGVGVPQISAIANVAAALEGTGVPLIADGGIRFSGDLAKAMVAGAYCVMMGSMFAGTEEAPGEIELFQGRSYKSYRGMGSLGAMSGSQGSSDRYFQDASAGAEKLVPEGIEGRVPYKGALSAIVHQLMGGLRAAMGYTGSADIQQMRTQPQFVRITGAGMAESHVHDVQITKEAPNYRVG

[2] = molecular target: T2, Inosine-5'-monophosphate dehydrogenase (Pseudomonas aeruginosa (strain ATCC 15692 / DSM 22644 / CIP 104116 / JCM14847 / LMG 12228 / 1C / PRS 101 / PAO1), UniProt Q9HXM5); test: Inhibition of Pseudomonas aeruginosa IMPDH using IMP as substrate in the presence of NAD+ incubated for 70 secs
T2 sequence (Q9HXM5 whole entry): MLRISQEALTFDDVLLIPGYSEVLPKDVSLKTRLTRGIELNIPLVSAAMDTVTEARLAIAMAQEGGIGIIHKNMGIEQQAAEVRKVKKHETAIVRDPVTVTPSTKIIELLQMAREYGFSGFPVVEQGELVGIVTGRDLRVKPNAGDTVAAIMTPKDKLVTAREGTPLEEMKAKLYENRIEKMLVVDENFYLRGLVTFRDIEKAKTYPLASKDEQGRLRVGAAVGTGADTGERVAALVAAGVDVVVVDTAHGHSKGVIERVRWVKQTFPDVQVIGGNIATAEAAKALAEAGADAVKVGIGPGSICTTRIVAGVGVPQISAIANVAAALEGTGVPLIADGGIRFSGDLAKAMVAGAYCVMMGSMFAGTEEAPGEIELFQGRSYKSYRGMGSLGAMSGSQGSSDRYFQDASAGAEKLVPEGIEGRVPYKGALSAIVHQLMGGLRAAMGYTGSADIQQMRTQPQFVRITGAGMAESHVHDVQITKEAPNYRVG

[3] = molecular target: T1, Inosine-5'-monophosphate dehydrogenase (Pseudomonas aeruginosa (strain ATCC 15692 / DSM 22644 / CIP 104116 / JCM14847 / LMG 12228 / 1C / PRS 101 / PAO1)); test: Inhibition of Pseudomonas aeruginosa IMPDH at 40.7 uM using IMP as substrate in the presence of NAD+ incubated for 70 secs relative to control
[4] = molecular target: T1, Inosine-5'-monophosphate dehydrogenase (Pseudomonas aeruginosa (strain ATCC 15692 / DSM 22644 / CIP 104116 / JCM14847 / LMG 12228 / 1C / PRS 101 / PAO1)); test: Inhibition of Pseudomonas aeruginosa IMPDH at 43.1 uM using IMP as substrate in the presence of NAD+ incubated for 70 secs relative to control
[5] = molecular target: T1, Inosine-5'-monophosphate dehydrogenase (Pseudomonas aeruginosa (strain ATCC 15692 / DSM 22644 / CIP 104116 / JCM14847 / LMG 12228 / 1C / PRS 101 / PAO1)); test: Competitive inhibition of Pseudomonas aeruginosa IMPDH using IMP as substrate at varying levels and NAD+ in presence of ATP incubated for 70 secs
[6] = molecular target: T1, Inosine-5'-monophosphate dehydrogenase (Pseudomonas aeruginosa (strain ATCC 15692 / DSM 22644 / CIP 104116 / JCM14847 / LMG 12228 / 1C / PRS 101 / PAO1)); test: Inhibition of Pseudomonas aeruginosa IMPDH at 35.1 uM using IMP as substrate in the presence of NAD+ incubated for 70 secs relative to control
[7] = molecular target: T1, Inosine-5'-monophosphate dehydrogenase (Pseudomonas aeruginosa (strain ATCC 15692 / DSM 22644 / CIP 104116 / JCM14847 / LMG 12228 / 1C / PRS 101 / PAO1)); test: Inhibition of Pseudomonas aeruginosa IMPDH assessed as Km for IMP at 20 uM using IMP as substrate in presence of 2 mM NAD+ and 0.2 mM MgATP (reference value: 483 +/- 65 microM)
[8] = molecular target: T1, Inosine-5'-monophosphate dehydrogenase (Pseudomonas aeruginosa (strain ATCC 15692 / DSM 22644 / CIP 104116 / JCM14847 / LMG 12228 / 1C / PRS 101 / PAO1)); test: Inhibition of Pseudomonas aeruginosa IMPDH at 46.2 uM using IMP as substrate in the presence of NAD+ incubated for 70 secs relative to control
[9] = molecular target: T1, Inosine-5'-monophosphate dehydrogenase (Pseudomonas aeruginosa (strain ATCC 15692 / DSM 22644 / CIP 104116 / JCM14847 / LMG 12228 / 1C / PRS 101 / PAO1)); test: Inhibition of Pseudomonas aeruginosa IMPDH at 44.7 uM using IMP as substrate in the presence of NAD+ incubated for 70 secs relative to control
[10] = molecular target: T1, Inosine-5'-monophosphate dehydrogenase (Pseudomonas aeruginosa (strain ATCC 15692 / DSM 22644 / CIP 104116 / JCM14847 / LMG 12228 / 1C / PRS 101 / PAO1)); test: Non-competitive inhibition of Pseudomonas aeruginosa IMPDH using IMP as substrate and NAD+ in presence of ATP incubated for 70 secs
[11] = molecular target: T1, Inosine-5'-monophosphate dehydrogenase (Pseudomonas aeruginosa (strain ATCC 15692 / DSM 22644 / CIP 104116 / JCM14847 / LMG 12228 / 1C / PRS 101 / PAO1)); test: Inhibition of Pseudomonas aeruginosa IMPDH at 50.8 uM using IMP as substrate in the presence of NAD+ incubated for 70 secs relative to control
[12] = molecular target: T1, Inosine-5'-monophosphate dehydrogenase (Pseudomonas aeruginosa (strain ATCC 15692 / DSM 22644 / CIP 104116 / JCM14847 / LMG 12228 / 1C / PRS 101 / PAO1)); test: Inhibition of Pseudomonas aeruginosa IMPDH at 42.9 uM using IMP as substrate in the presence of NAD+ incubated for 70 secs relative to control
[13] = molecular target: T1, Inosine-5'-monophosphate dehydrogenase (Pseudomonas aeruginosa (strain ATCC 15692 / DSM 22644 / CIP 104116 / JCM14847 / LMG 12228 / 1C / PRS 101 / PAO1)); test: Inhibition of Pseudomonas aeruginosa IMPDH at 39.6 uM using IMP as substrate in the presence of NAD+ incubated for 70 secs relative to control
[14] = molecular target: T1, Inosine-5'-monophosphate dehydrogenase (Pseudomonas aeruginosa (strain ATCC 15692 / DSM 22644 / CIP 104116 / JCM14847 / LMG 12228 / 1C / PRS 101 / PAO1)); test: Inhibition of Pseudomonas aeruginosa IMPDH at 49.8 uM using IMP as substrate in the presence of NAD+ incubated for 70 secs relative to control
[15] = molecular target: T1, Inosine-5'-monophosphate dehydrogenase (Pseudomonas aeruginosa (strain ATCC 15692 / DSM 22644 / CIP 104116 / JCM14847 / LMG 12228 / 1C / PRS 101 / PAO1)); test: Inhibition of Pseudomonas aeruginosa IMPDH at 54.6 uM using IMP as substrate in the presence of NAD+ incubated for 70 secs relative to control
[16] = compound: CCOc1ccc(-c2cc(C(=O)O)nc3[nH]nc(-c4ccc(Cl)cc4)c23)cc1; test: (§1) Inhibition of Pseudomonas aeruginosa IMPDH assessed as Vmax for IMP at 20 uM using IMP as substrate in presence of 2 mM NAD+ and 0.2 mM MgATP (reference value: 3.74 +/- 0.22 U/mg)
[17] = compound: CC(=O)N1CCOc2cc(S(=O)(=O)Nc3ccc(F)c(Cl)c3)ccc21; test: as §1
[18] = compound: N#CC1=C(N)Oc2[nH]c(=O)[nH]c(=O)c2C1c1ccc([N+](=O)[O-])cc1; test: (§2) Inhibition of Pseudomonas aeruginosa IMPDH assessed as Vmax for IMP at 10 uM using IMP as substrate in presence of 2 mM NAD+ and 0.2 mM MgATP (reference value: 3.74 +/- 0.22 U/mg)
[19] = compound: CC(=O)Nc1ccc(C2C3=C(Nc4c2c(=O)[nH]c(=O)n4Cc2ccccc2)c2ccccc2C3=O)cc1; test: as §2

O=C(O)c1cc(-c2cc(Br)ccc2F)c2c(-c3ccc(Cl)cc3)n[nH]c2n1
inhibition [1]: Active
IC50 ([2]; read-out: IC50): 7.4 µM
inhibition [3]: 71.6%

CN(Cc1ccccc1)Cc1nc2c(c(=O)n(C)c(=O)n2C)n1Cc1ccccc1F
IC50 [2]: Not Active
inhibition [4]: 93.3%

Cc1cc2c(C(C)C)c(O)c(O)c(C=O)c2c(O)c1-c1c(C)cc2c(C(C)C)c(O)c(O)c(C=O)c2c1O [GOSSYPOL]
IC50 ([2]; read-out: IC50): 0.9 µM
inhibition [5]: Active
inhibition [6]: 100%

CCOc1ccc(-c2cc(C(=O)O)nc3[nH]nc(-c4ccc(Cl)cc4)c23)cc1
inhibition [1]: Active
IC50 ([2]; read-out: IC50): 18.3 µM
K0.5 [7]: 616 µM
inhibition [8]: 73%

CC(=O)Nc1ccc(-c2cc(C(=O)O)nc3[nH]nc(-c4ccc(Cl)cc4)c23)cc1
inhibition [9]: 73.2%
inhibition [1]: Active
IC50 ([2]; read-out: IC50): 19 µM

COc1ccccc1-c1noc(CCC(=O)Nc2ccc(Cl)cc2)n1
inhibition [10]: Active
IC50 ([2]; read-out: IC50): 2.6 µM
inhibition [11]: 70.6%

CCc1oc2ccccc2c1C(=O)c1cc(Br)c(O)c(Br)c1 [BENZBROMARONE]
inhibition [12]: 73.3%
IC50 ([2]; read-out: IC50): 55 µM

COc1ccc(-c2cc(C(=O)O)nc3[nH]nc(-c4ccc(C)cc4)c23)cc1Br
inhibition [13]: 83.1%
inhibition [1]: Active
IC50 ([2]; read-out: IC50): 11.7 µM

COc1ccc(-n2c(=O)[nH]cc(C(=O)Nc3cc(C)ccc3C)c2=O)cc1
IC50 [2]: Not Active
inhibition [14]: 108%

N#CC1=C(N)Oc2[nH]c(=O)[nH]c(=O)c2C1c1ccc([N+](=O)[O-])s1 (configuration not stated)
inhibition [1]: Active
IC50 ([2]; read-out: IC50): 4 µM
inhibition [15]: 85.7%

B1: Inosine-5'-monophosphate dehydrogenase (Pseudomonas aeruginosa (strain ATCC 15692 / DSM 22644 / CIP 104116 / JCM14847 / LMG 12228 / 1C / PRS 101 / PAO1)), … (protein)
chain: MLRISQEALTFDDVLLIPGYSEVLPKDVSLKTRLTRGIELNIPLVSAAMDTVTEARLAIAMAQEGGIGIIHKNMGIEQQAAEVRKVKKHETAIVRDPVTVTPSTKIIELLQMAREYGFSGFPVVEQGELVGIVTGRDLRVKPNAGDTVAAIMTPKDKLVTAREGTPLEEMKAKLYENRIEKMLVVDENFYLRGLVTFRDIEKAKTYPLASKDEQGRLRVGAAVGTGADTGERVAALVAAGVDVVVVDTAHGHSKGVIERVRWVKQTFPDVQVIGGNIATAEAAKALAEAGADAVKVGIGPGSICTTRIVAGVGVPQISAIANVAAALEGTGVPLIADGGIRFSGDLAKAMVAGAYCVMMGSMFAGTEEAPGEIELFQGRSYKSYRGMGSLGAMSGSQGSSDRYFQDASAGAEKLVPEGIEGRVPYKGALSAIVHQLMGGLRAAMGYTGSADIQQMRTQPQFVRITGAGMAESHVHDVQITKEAPNYRVG
Vmax [16]: 3.14 U/mg
Vmax [17]: 2.81 U/mg
Vmax [18]: 3.64 U/mg
Vmax [19]: 3.34 U/mg
